Species on record: Rattus norvegicus
Assay: Open TG-GATES - Regimen: Single
Type: toxicity, organism-based, Sprague-Dawley
Design: regimen Single, gender Male, age 6 weeks
Conditions: in vivo, po, route gavage; for gamma-GTP / ALT / AST / BUN / CRE / Ca / Cl / DBIL / GLC / IP / K / LDH / Na / PL / RALB / TBIL / TC / TP: tissue Plasma; for Bas / Eos / Fbg / Hb / Ht / Lym / MCHC / MCV / Mono / Neu / Plat / RBC / Ret / WBC: tissue Blood; for KIDNEY_TOTAL: tissue Kidney; for LIVER: tissue Liver
[1] = 50 mg/kg, 24 h, dose level High

C[C@@H]1C[C@H]2[C@@H]3CCC4=CC(=O)C=C[C@]4(C)[C@@]3(F)[C@@H](O)C[C@]2(C)[C@@]1(O)C(=O)CO [DEXAMETHASONE] showed a gamma-GTP (5 mg/kg, 24 h, dose level Middle) of 0 IU/L, a TERMINAL_BW (50 mg/kg, 3 h, dose level High) of 214.6 g and a Bas (50 mg/kg, 3 h, dose level High) of 0%. It also gave an Eos (50 mg/kg, 3 h, dose level High) of 0.8%, a Fbg (50 mg/kg, 3 h, dose level High) of 244.4 mg/dL and a Hb (50 mg/kg, 3 h, dose level High) of 13.1 g/dL. For the same compound, the Ht (50 mg/kg, 3 h, dose level High) was 40.1%, the Lym (50 mg/kg, 3 h, dose level High) was 58% and the MCHC (50 mg/kg, 3 h, dose level High) was 32.5%. The MCV (50 mg/kg, 3 h, dose level High) was 63.1 fL, the Mono (50 mg/kg, 3 h, dose level High) was 2.8% and the Neu (50 mg/kg, 3 h, dose level High) was 38.8%. It also gave a Plat (50 mg/kg, 3 h, dose level High) of 125.2 x10_4/uL, an RBC (50 mg/kg, 3 h, dose level High) of 635.6 x10_4/ul and a Ret (50 mg/kg, 3 h, dose level High) of 7.4%. The WBC (50 mg/kg, 3 h, dose level High) was 35.1 x10_2/uL, the KIDNEY_TOTAL (50 mg/kg, 3 h, dose level High) was 0.6 g and the LIVER (50 mg/kg, 3 h, dose level High) was 10.7 g. It also gave an ALT (50 mg/kg, 3 h, dose level High) of 40.4 IU/L, an AST (50 mg/kg, 3 h, dose level High) of 75.2 IU/L and a BUN (50 mg/kg, 3 h, dose level High) of 15.6 mg/dL. It also gave a CRE (50 mg/kg, 3 h, dose level High) of 0.4 mg/dL, a Ca (50 mg/kg, 3 h, dose level High) of 11.3 mg/dL and a Cl (50 mg/kg, 3 h, dose level High) of 103.2 meq/L. For the same compound, the DBIL (50 mg/kg, 3 h, dose level High) was 0.012 mg/dL, the GLC (50 mg/kg, 3 h, dose level High) was 198.8 mg/dL and the IP (50 mg/kg, 3 h, dose level High) was 11.5 mg/dL. The K (50 mg/kg, 3 h, dose level High) was 3.9 meq/L, the LDH (50 mg/kg, 3 h, dose level High) was 85.4 IU/L and the Na (50 mg/kg, 3 h, dose level High) was 142 meq/L. For the same compound, the PL (50 mg/kg, 3 h, dose level High) was 152.8 mg/dL, the RALB (50 mg/kg, 3 h, dose level High) was 4.3 g/dL and the TBIL (50 mg/kg, 3 h, dose level High) was 0.04 mg/dL. For the same compound, the TC (50 mg/kg, 3 h, dose level High) was 91 mg/dL, the TP (50 mg/kg, 3 h, dose level High) was 6.1 g/dL and the gamma-GTP (50 mg/kg, 3 h, dose level High) was 1 IU/L. For the same compound, the TERMINAL_BW (50 mg/kg, 6 h, dose level High) was 208.4 g, the Bas (50 mg/kg, 6 h, dose level High) was 0% and the Eos (50 mg/kg, 6 h, dose level High) was 0%. The Fbg (50 mg/kg, 6 h, dose level High) was 244.4 mg/dL, the Hb (50 mg/kg, 6 h, dose level High) was 13.3 g/dL and the Ht (50 mg/kg, 6 h, dose level High) was 40.4%. It also gave a Lym (50 mg/kg, 6 h, dose level High) of 61.8%, an MCHC (50 mg/kg, 6 h, dose level High) of 32.9% and an MCV (50 mg/kg, 6 h, dose level High) of 63.8 fL. It also gave a Mono (50 mg/kg, 6 h, dose level High) of 3.4%, a Neu (50 mg/kg, 6 h, dose level High) of 34.4% and a Plat (50 mg/kg, 6 h, dose level High) of 119.3 x10_4/uL. It also gave an RBC (50 mg/kg, 6 h, dose level High) of 634 x10_4/ul, a Ret (50 mg/kg, 6 h, dose level High) of 7.1% and a WBC (50 mg/kg, 6 h, dose level High) of 26.8 x10_2/uL. It also gave a KIDNEY_TOTAL (50 mg/kg, 6 h, dose level High) of 0.5 g, an LIVER (50 mg/kg, 6 h, dose level High) of 10.5 g and an ALT (50 mg/kg, 6 h, dose level High) of 40.8 IU/L. The AST (50 mg/kg, 6 h, dose level High) was 83 IU/L, the BUN (50 mg/kg, 6 h, dose level High) was 16.2 mg/dL and the CRE (50 mg/kg, 6 h, dose level High) was 0.4 mg/dL. For the same compound, the Ca (50 mg/kg, 6 h, dose level High) was 11.4 mg/dL, the Cl (50 mg/kg, 6 h, dose level High) was 104.6 meq/L and the DBIL (50 mg/kg, 6 h, dose level High) was 0.01 mg/dL. It also gave a GLC (50 mg/kg, 6 h, dose level High) of 215.2 mg/dL, an IP (50 mg/kg, 6 h, dose level High) of 8.1 mg/dL and a K (50 mg/kg, 6 h, dose level High) of 4.1 meq/L. For the same compound, the LDH (50 mg/kg, 6 h, dose level High) was 80.6 IU/L, the Na (50 mg/kg, 6 h, dose level High) was 140.2 meq/L and the PL (50 mg/kg, 6 h, dose level High) was 157.6 mg/dL. It also gave an RALB (50 mg/kg, 6 h, dose level High) of 4.6 g/dL, a TBIL (50 mg/kg, 6 h, dose level High) of 0.036 mg/dL and a TC (50 mg/kg, 6 h, dose level High) of 106.4 mg/dL. It also gave a TP (50 mg/kg, 6 h, dose level High) of 6.5 g/dL, a gamma-GTP (50 mg/kg, 6 h, dose level High) of 0 IU/L and a TERMINAL_BW (50 mg/kg, 9 h, dose level High) of 200.5 g. The Bas (50 mg/kg, 9 h, dose level High) was 0%, the Eos (50 mg/kg, 9 h, dose level High) was 0% and the Fbg (50 mg/kg, 9 h, dose level High) was 244.6 mg/dL. The Hb (50 mg/kg, 9 h, dose level High) was 13.5 g/dL, the Ht (50 mg/kg, 9 h, dose level High) was 41% and the Lym (50 mg/kg, 9 h, dose level High) was 42.8%. The MCHC (50 mg/kg, 9 h, dose level High) was 32.9%, the MCV (50 mg/kg, 9 h, dose level High) was 64.5 fL and the Mono (50 mg/kg, 9 h, dose level High) was 2%. For the same compound, the Neu (50 mg/kg, 9 h, dose level High) was 55.2%, the Plat (50 mg/kg, 9 h, dose level High) was 121.9 x10_4/uL and the RBC (50 mg/kg, 9 h, dose level High) was 636.2 x10_4/ul. The Ret (50 mg/kg, 9 h, dose level High) was 5.4%, the WBC (50 mg/kg, 9 h, dose level High) was 15.4 x10_2/uL and the KIDNEY_TOTAL (50 mg/kg, 9 h, dose level High) was 0.5 g. The LIVER (50 mg/kg, 9 h, dose level High) was 10.8 g, the ALT (50 mg/kg, 9 h, dose level High) was 39 IU/L and the AST (50 mg/kg, 9 h, dose level High) was 78.2 IU/L. It also gave a BUN (50 mg/kg, 9 h, dose level High) of 18.2 mg/dL, a CRE (50 mg/kg, 9 h, dose level High) of 0.4 mg/dL and a Ca (50 mg/kg, 9 h, dose level High) of 10.6 mg/dL. The Cl (50 mg/kg, 9 h, dose level High) was 103.2 meq/L, the DBIL (50 mg/kg, 9 h, dose level High) was 0.01 mg/dL and the GLC (50 mg/kg, 9 h, dose level High) was 238.8 mg/dL. It also gave an IP (50 mg/kg, 9 h, dose level High) of 6.6 mg/dL, a K (50 mg/kg, 9 h, dose level High) of 4.2 meq/L and an LDH (50 mg/kg, 9 h, dose level High) of 83.4 IU/L. The Na (50 mg/kg, 9 h, dose level High) was 138 meq/L, the PL (50 mg/kg, 9 h, dose level High) was 177.6 mg/dL and the RALB (50 mg/kg, 9 h, dose level High) was 4.6 g/dL. It also gave a TBIL (50 mg/kg, 9 h, dose level High) of 0.032 mg/dL, a TC (50 mg/kg, 9 h, dose level High) of 105.6 mg/dL and a TP (50 mg/kg, 9 h, dose level High) of 6.5 g/dL. It also gave a gamma-GTP (50 mg/kg, 9 h, dose level High) of 0.8 IU/L, a TERMINAL_BW [1] of 218.5 g and a Bas [1] of 0%. For the same compound, the Eos [1] was 1.2%, the Fbg [1] was 231 mg/dL and the Hb [1] was 13.8 g/dL. For the same compound, the Ht [1] was 42.2%, the Lym [1] was 13.8% and the MCHC [1] was 32.8%. It also gave an MCV [1] of 63.1 fL, a Mono [1] of 7.2% and a Neu [1] of 78.4%. For the same compound, the Plat [1] was 129.6 x10_4/uL, the RBC [1] was 667.6 x10_4/ul and the Ret [1] was 4.6%. For the same compound, the WBC [1] was 26.2 x10_2/uL, the KIDNEY_TOTAL [1] was 0.3 g and the LIVER [1] was 14.3 g. For the same compound, the ALT [1] was 52.8 IU/L, the AST [1] was 102.2 IU/L and the BUN [1] was 19.2 mg/dL. The CRE [1] was 0.5 mg/dL, the Ca [1] was 11.2 mg/dL and the Cl [1] was 99.8 meq/L. For the same compound, the DBIL [1] was 0.018 mg/dL, the GLC [1] was 273.2 mg/dL and the IP [1] was 6.7 mg/dL. It also gave a K [1] of 4.6 meq/L, a Na [1] of 138.8 meq/L and a PL [1] of 260.8 mg/dL. For the same compound, the RALB [1] was 4.6 g/dL, the TBIL [1] was 0.042 mg/dL and the TC [1] was 120.4 mg/dL. For the same compound, the TP [1] was 6.5 g/dL and the gamma-GTP [1] was 0.4 IU/L.

Source: ChEMBL document CHEMBL3885861, “Open TG-GATES”
